We go through two compounds from patent publication US9487462B2, “Inhibitors of matrix metalloproteinases” (PharmaHungary 2000 Kft., priority 2010, dated 2016).

In general, pIC50 refers to the IC50 on a negative log10 scale, so that one unit is a factor of ten. A word on the inhibition: it is how much of the control response was suppressed.

Data set [1] addresses MMP9 (Homo sapiens, UniProt P14780). As to the kind of experiment: MMP activity assay (fluorogenic substrate), MMP9 catalytic domain. It counts as biochemical. Conditions: Table 2.
The nature of data set [2]: Cytotoxicity, alamarBlue viability, HCT116. The format is cell-based. Conditions: human, HCT116 colon tumor cells, 48 hours incubation, read-out: HCT116 LC50. In outline:
(§1)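 Cells exposed to compound dilutions for 48 hours, then alamarBlue added for 4 hours; fluorescence read at ex 540/em 590 nm. IC50 from six concentrations run in duplicate.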

The target in data set [3] is MMP1 (Homo sapiens (Human), UniProt P03956). Nature of the data set: MMP activity assay (fluorogenic substrate), MMP1. It counts as biochemical. To be noted: Table 2; read-out: MM1 IC50.
Data set [4] concerns isolated rat hearts. As to the kind of experiment: Myocardial ischemia/reperfusion injury in isolated rat hearts (Langendorff), infarct size. The format is ex vivo. To be noted: 5 μM final concentration; isolated rat hearts, 30 min global ischemia, 120 min reperfusion. Here is the method:
Male Wistar rats were anesthetized with diethyl ether, heparin (500 U/kg i.v.) was administered and hearts were isolated. The hearts were assigned to three groups: (i) DMSO control and (ii) Compound 1 (1 μM) and (iii) Compound 1 (10 μM) treated. Stock solution of inhibitors was prepared in DMSO. The final DMSO concentration in all assays was 0.1%. Hearts were perfused in Langendorff mode with constant pressure (100 H2O cm) for 20 min at 37° C. then exposed to global ischemia for 30 min followed by 120 min of reperfusion. The DMSO and inhibitors were dissolved in Krebs-Henseleit buffer and administered only before onset of ischemia for 20 min (pretreatment) and during the first 30 min of reperfusion (FIG. 6). At the end of reperfusion, infarct size (IS) was defined by triphenyltetrazolium chloride staining (Csonka et al., 2010).
In separate experiments hearts were perfused to test cardioprotective effect of ALBH-know compound at 5 μM final concentration. The same protocol was used as mentioned above.

Data set [5] can be described thus: Cytotoxicity, alamarBlue viability, MRC-5. The format is cell-based. Conditions: human, MRC-5 fibroblast cells, 48 hours incubation, read-out: MRC-5 LC50. An outline of the steps: as §1
For orientation: Alamar Blue is a resazurin reagent that responds to reducing activity.

In data set [6] the target is MMP-2 (Rattus norvegicus (Rat), UniProt P33436). Nature of the data set: In vitro zymography assay (gelatin), MMP-2. It counts as biochemical. To be noted: % ± SD. Here is the method:
MMP-2 and MMP-9 enzymes were isolated from rat hearts and from rat spleen while human, recombinant MMP-1 and MMP-13 enzymes used were commercial. MMP-2, -9, -13 enzymes were separated by electrophoresis during non-reducing conditions on 8% SDS-polyacrylamide gels copolymerized with 2 mg/ml gelatin from porcine skin (Sigma Aldrich) while MMP-1 was separated under the same conditions on 8% SDS-polyacrylamide gels copolymerized with 2 mg/ml casein (Sigma Aldrich). […] In case of MMP-13 p-aminophenylmercuric acetate (APMA) was used for enzyme activation at 37° C. for 30 min. After electrophoresis, gels were washed in 2.5% Triton-X 100 with agitation and then incubated for 20 hrs at 37° C. in enzyme incubation buffer (50 mM Tris-HCl, pH 7.5, containing 5 mM CaCl2, 200 mM NaCl) with or without MMP inhibitor. Zymographic gels were stained in Coomassie Brilliant Blue R-250 and de-stained. Gelatin and casein zymograms were scanned. MMP activity is detected as a white zone on a blue background and the clear bands in the gel can be quantified by densitometry. The obtained density values were measured and % inhibition values calculated (Kupai et al., 2010). The table below summarizes the prescreen inhibition values determined for different MMP inhibitors on MMP1, -2, -9, -13.

Data set [7] addresses MMP13 (Homo sapiens (Human), UniProt P45452). As to the kind of experiment: MMP activity assay (fluorogenic substrate), MMP13 catalytic domain. The format is biochemical. To be noted: Table 2; read-out: MMP13 IC50.
In data set [8] the target is MMP2 (Homo sapiens, UniProt P08253). As to the kind of experiment: MMP activity assay (fluorogenic substrate), MMP2 catalytic domain. It counts as biochemical. To be noted: Table 2; read-out: MMP2 IC50.
Data set [9] relates to human colon tumor cell line HCT116. Nature of the data set: Cytotoxicity, alamarBlue viability, HCT116. The format is cell-based. To be noted: 48 hours incubation, read-out: HCT116 LC50. In outline: as §1
Data set [10] relates to healthy human fibroblast cell line MRC-5. As to the kind of experiment: Cytotoxicity, alamarBlue viability, MRC-5. The format is cell-based. To be noted: 48 hours incubation, read-out: MRC-5 LC50. An outline of the steps:
as §1

pIC50: −log10 of the molar value. Where a name gives a salt, the structure may show the parent alone.

Chain of MMP1 (P03956 100-469, species assumed): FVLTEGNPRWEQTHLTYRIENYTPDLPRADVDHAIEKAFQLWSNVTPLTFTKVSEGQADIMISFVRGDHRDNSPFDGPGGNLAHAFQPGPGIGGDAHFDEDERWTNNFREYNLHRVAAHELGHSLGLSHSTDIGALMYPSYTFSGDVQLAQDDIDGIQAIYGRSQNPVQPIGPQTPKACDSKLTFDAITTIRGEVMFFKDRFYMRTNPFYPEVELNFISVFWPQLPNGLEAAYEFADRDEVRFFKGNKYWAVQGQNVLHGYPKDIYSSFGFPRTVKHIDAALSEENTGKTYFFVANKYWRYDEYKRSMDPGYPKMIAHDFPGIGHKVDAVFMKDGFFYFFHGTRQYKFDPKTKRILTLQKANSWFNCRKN
Chain of MMP-2 (P33436 110-662): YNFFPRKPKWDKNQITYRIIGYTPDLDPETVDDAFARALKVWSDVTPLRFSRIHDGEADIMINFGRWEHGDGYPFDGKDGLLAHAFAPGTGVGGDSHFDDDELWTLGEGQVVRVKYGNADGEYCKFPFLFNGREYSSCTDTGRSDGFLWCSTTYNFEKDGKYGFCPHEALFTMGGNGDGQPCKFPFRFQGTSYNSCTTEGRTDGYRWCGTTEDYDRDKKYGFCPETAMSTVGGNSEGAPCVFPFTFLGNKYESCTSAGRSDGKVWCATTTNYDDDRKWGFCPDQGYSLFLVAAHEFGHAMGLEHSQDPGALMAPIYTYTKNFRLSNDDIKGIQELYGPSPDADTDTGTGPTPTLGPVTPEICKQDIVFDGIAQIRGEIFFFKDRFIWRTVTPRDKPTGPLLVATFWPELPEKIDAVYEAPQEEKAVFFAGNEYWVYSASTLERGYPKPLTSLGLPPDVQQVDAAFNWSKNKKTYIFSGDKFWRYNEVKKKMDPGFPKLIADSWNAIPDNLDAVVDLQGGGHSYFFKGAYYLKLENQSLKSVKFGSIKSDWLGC

With `O=C(O)c1csc(CN(Cc2ccc(F)cc2)Cc2ccc(OCc3ccccc3)cc2)n1` [ALBH-known, 2-[({[4-(benzyloxy)phenyl]methyl}[(4-fluorophenyl)methyl]amino)methyl]-1,3-thiazole-4-carboxylic acid, reference compound], the pIC50 in data set [1] is 4.82; in [3], 5.44; in [7] it was 5.79. For the same compound, the CC50 at 48 h in [2] was found to be 3.5 µM; in data set [5], 33 µM. The “reduction of myocardial IS as compared to vehicle” value in data set [4] came to 72.01±4.96%. Further, the “% inhibition MMP-2 (72 kDa)” value in [6] (1 μM) is given as “No inhibition”. Also, the inhibition at 100 µM in data set [6] (100 μM, read-out: % inhibition MMP-2 (72 kDa)) turned out to be 100%.

`O=C(O)c1c[nH]c(CN(Cc2ccc(F)cc2)Cc2ccc(OCc3ccccc3)cc2)n1` [Compound 30 HCl, 2-[({[4-(Benzyloxy)phenyl]methyl}[(4-fluorophenyl)methyl]amino)methyl]-1H-imidazole-4-carboxylic acid]: the pIC50 in data set [1] is 4.00; in data set [8], 4.82; in data set [3], 4.48; in data set [7], 5.48. Besides, the CC50 amounted to 5.6 µM in data set [9] and 15 µM in data set [10].
